Assay results as given in patent publication US20230085307A1, “PYRIDAZINONE COMPOUND AND HERBICIDE” (NISSAN CHEMICAL CORPORATION, priority 2019, published 2023).

Experiments:
velvetleaf [1] = test: Test Example 5: herbicidal effect by foliage application, plastic box (Table 20, symbol M); format: in vivo, velvetleaf (Abutilon theophrasti); conditions: foliage application, 320 g/ha, evaluated three weeks after application
How it was run: (§1)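 Plants sown in sterilized diluvial soil and grown 14 days in a greenhouse at 25° C to 30° C, then sprayed on the foliage with the compound's emulsion diluted in water to a predetermined herbicide amount. Injury to weeds and crops scored three weeks after application on a visual rating scale.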

Chinese sprangletop = test: Test Example 3: herbicidal effect by foliage application, Wagner pot (Table 18, symbol D); format: in vivo, chinese sprangletop (Leptochloa chinensis); conditions: amount of applied herbicide 320 g/ha
How it was run: (§2)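 Plants were sown in alluvial soil held under 0.1–0.5 cm standing water and grown 14 days in a greenhouse at 25–30 °C. An emulsifiable formulation, water-diluted to the set dose, was then sprayed onto the foliage, and effects were scored three weeks later using previously defined criteria.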

windgrass [2] = test: Test Example 4: herbicidal effect by soil treatment (Table 19, symbol L); format: in vivo, windgrass (Apera spica-venti); conditions: amount of applied herbicide 320 g/ha
How it was run: (§3)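 Three weeks of greenhouse growth at 25° C. to 30° C. followed a uniform surface spray of water-diluted emulsion at a predetermined herbicide amount. Seeds had been sown beforehand under about 1.5 cm of sterilized diluvial soil. Grading followed criteria set out in an earlier test.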

southern crabgrass [3] = test: Test Example 4: herbicidal effect by soil treatment (Table 19, symbol F); format: in vivo, southern crabgrass (Digitaria ciliaris); conditions: amount of applied herbicide 320 g/ha
How it was run: as §3

chickweed [4] = test: Test Example 4: herbicidal effect by soil treatment (Table 19, symbol P); format: in vivo, common chickweed (Stellaria media); conditions: amount of applied herbicide 320 g/ha
How it was run: as §3

false cleavers = test: Test Example 5: herbicidal effect by foliage application, plastic box (Table 20, symbol Q); format: in vivo, false cleavers (Galium spurium); conditions: foliage application, 320 g/ha, evaluated three weeks after application
How it was run: as §1

redroot pigweed [5] = test: Test Example 4: herbicidal effect by soil treatment (Table 19, symbol N); format: in vivo, redroot pigweed (Amaranthus retroflexus); conditions: amount of applied herbicide 320 g/ha
How it was run: as §3

barnyard grass [6] = test: Test Example 3: herbicidal effect by foliage application, Wagner pot (Table 18, symbol H); format: in vivo, barnyard grass (Echinochloa crus-galli); conditions: amount of applied herbicide 320 g/ha
How it was run: as §2

Italian ryegrass [7] = test: Test Example 5: herbicidal effect by foliage application, plastic box (Table 20, symbol K); format: in vivo, Italian ryegrass (Lolium multiflorum); conditions: foliage application, 320 g/ha, evaluated three weeks after application
How it was run: as §1

velvetleaf [8] = test: Test Example 4: herbicidal effect by soil treatment (Table 19, symbol M); format: in vivo, velvetleaf (Abutilon theophrasti); conditions: amount of applied herbicide 320 g/ha
How it was run: as §3

blackgrass [9] = test: Test Example 5: herbicidal effect by foliage application, plastic box (Table 20, symbol J); format: in vivo, blackgrass (Alopecurus myosuroides); conditions: foliage application, 320 g/ha, evaluated three weeks after application
How it was run: as §1

green foxtail [10] = test: Test Example 5: herbicidal effect by foliage application, plastic box (Table 20, symbol G); format: in vivo, green foxtail (Setaria viridis); conditions: foliage application, 320 g/ha, evaluated three weeks after application
How it was run: as §1

Italian ryegrass [11] = test: Test Example 4: herbicidal effect by soil treatment (Table 19, symbol K); format: in vivo, Italian ryegrass (Lolium multiflorum); conditions: amount of applied herbicide 320 g/ha
How it was run: as §3

rice flat sedge = test: Test Example 3: herbicidal effect by foliage application, Wagner pot (Table 18, symbol E); format: in vivo, rice flat sedge (Cyperus iria); conditions: amount of applied herbicide 320 g/ha
How it was run: as §2

barnyard grass [12] = test: Test Example 5: herbicidal effect by foliage application, plastic box (Table 20, symbol H); format: in vivo, barnyard grass (Echinochloa crus-galli); conditions: foliage application, 320 g/ha, evaluated three weeks after application
How it was run: as §1

wild oat [13] = test: Test Example 5: herbicidal effect by foliage application, plastic box (Table 20, symbol I); format: in vivo, wild oat (Avena fatua); conditions: foliage application, 320 g/ha, evaluated three weeks after application
How it was run: as §1

lambsquarters [14] = test: Test Example 4: herbicidal effect by soil treatment (Table 19, symbol O); format: in vivo, lambsquarters (Chenopodium album); conditions: amount of applied herbicide 320 g/ha
How it was run: as §3

chickweed [15] = test: Test Example 5: herbicidal effect by foliage application, plastic box (Table 20, symbol P); format: in vivo, common chickweed (Stellaria media); conditions: foliage application, 320 g/ha, evaluated three weeks after application
How it was run: as §1

barnyard grass [16] = test: Test Example 4: herbicidal effect by soil treatment (Table 19, symbol H); format: in vivo, barnyard grass (Echinochloa crus-galli); conditions: amount of applied herbicide 320 g/ha
How it was run: as §3

southern crabgrass [17] = test: Test Example 5: herbicidal effect by foliage application, plastic box (Table 20, symbol F); format: in vivo, southern crabgrass (Digitaria ciliaris); conditions: foliage application, 320 g/ha, evaluated three weeks after application
How it was run: as §1

windgrass [18] = test: Test Example 5: herbicidal effect by foliage application, plastic box (Table 20, symbol L); format: in vivo, windgrass (Apera spica-venti); conditions: foliage application, 320 g/ha, evaluated three weeks after application
How it was run: as §1

redroot pigweed [19] = test: Test Example 5: herbicidal effect by foliage application, plastic box (Table 20, symbol N); format: in vivo, redroot pigweed (Amaranthus retroflexus); conditions: foliage application, 320 g/ha, evaluated three weeks after application
How it was run: as §1

green foxtail [20] = test: Test Example 4: herbicidal effect by soil treatment (Table 19, symbol G); format: in vivo, green foxtail (Setaria viridis); conditions: amount of applied herbicide 320 g/ha
How it was run: as §3

persian speedwell [21] = test: Test Example 5: herbicidal effect by foliage application, plastic box (Table 20, symbol R); format: in vivo, Persian speedwell (Veronica persica); conditions: foliage application, 320 g/ha, evaluated three weeks after application
How it was run: as §1

persian speedwell [22] = test: Test Example 4: herbicidal effect by soil treatment (Table 19, symbol R); format: in vivo, Persian speedwell (Veronica persica); conditions: amount of applied herbicide 320 g/ha
How it was run: as §3

wild oat [23] = test: Test Example 4: herbicidal effect by soil treatment (Table 19, symbol I); format: in vivo, wild oat (Avena fatua); conditions: amount of applied herbicide 320 g/ha
How it was run: as §3

blackgrass [24] = test: Test Example 4: herbicidal effect by soil treatment (Table 19, symbol J); format: in vivo, blackgrass (Alopecurus myosuroides); conditions: amount of applied herbicide 320 g/ha
How it was run: as §3

lambsquarters [25] = test: Test Example 5: herbicidal effect by foliage application, plastic box (Table 20, symbol O); format: in vivo, lambsquarters (Chenopodium album); conditions: foliage application, 320 g/ha, evaluated three weeks after application
How it was run: as §1

Compound	herbicidal effect on D: Chinese sprangletop (Chinese sprangletop)	L: windgrass, herbicidal effect rating (windgrass [2])	F: southern crabgrass, herbicidal effect rating (southern crabgrass [3])	P: chickweed, herbicidal effect rating (chickweed [4])	N: redroot pigweed, herbicidal effect rating (redroot pigweed [5])	herbicidal effect on H: barnyard grass (barnyard grass [6])	M: velvetleaf, herbicidal effect rating (velvetleaf [8])	K: Italian ryegrass, herbicidal effect rating (Italian ryegrass [11])	herbicidal effect on E: rice flat sedge (rice flat sedge)	O: lambsquarters, herbicidal effect rating (lambsquarters [14])	H: barnyard grass, herbicidal effect rating (barnyard grass [16])	G: green foxtail, herbicidal effect rating (green foxtail [20])	R: persian speedwell, herbicidal effect rating (persian speedwell [22])	I: wild oat, herbicidal effect rating (wild oat [23])	J: blackgrass, herbicidal effect rating (blackgrass [24])	also measured
COc1ccc(-c2sc3ccc(Cl)cc3c2-c2c(O)c(C)nn(C)c2=O)cc1OC [2-123]	0 (Herbicidal rate of 5% or less (almost no effect))	0 (Herbicidal rate of 5% or less (almost no effect))	0 (Herbicidal rate of 5% or less (almost no effect))	3 (Herbicidal rate of 40% or more and less than 70%)	0 (Herbicidal rate of 5% or less (almost no effect))	3 (Herbicidal rate of 40% or more and less than 70%)	0 (Herbicidal rate of 5% or less (almost no effect))	0 (Herbicidal rate of 5% or less (almost no effect))	5 (Herbicidal rate of 90% or more (almost completely withered))	4 (Herbicidal rate of 70% or more and less than 90%)	0 (Herbicidal rate of 5% or less (almost no effect))	0 (Herbicidal rate of 5% or less (almost no effect))	4 (Herbicidal rate of 70% or more and less than 90%)	0 (Herbicidal rate of 5% or less (almost no effect))	0 (Herbicidal rate of 5% or less (almost no effect))	herbicidal effect on M: velvetleaf (velvetleaf [1]): 3 (Herbicidal rate of 40% or more and less than 70%); herbicidal effect on Q: false cleavers (false cleavers): 1 (Herbicidal rate of 5% or more and less than 20%); herbicidal effect on K: Italian ryegrass (Italian ryegrass [7]): 2 (Herbicidal rate of 20% or more and less than 40%); herbicidal effect on J: blackgrass (blackgrass [9]): 4 (Herbicidal rate of 70% or more and less than 90%); herbicidal effect on G: green foxtail (green foxtail [10]): 0 (Herbicidal rate of 5% or less (almost no effect)); herbicidal effect on H: barnyard grass (barnyard grass [12]): 0 (Herbicidal rate of 5% or less (almost no effect)); herbicidal effect on I: wild oat (wild oat [13]): 0 (Herbicidal rate of 5% or less (almost no effect)); herbicidal effect on P: chickweed (chickweed [15]): 5 (Herbicidal rate of 90% or more (almost completely withered)); herbicidal effect on F: southern crabgrass (southern crabgrass [17]): 0 (Herbicidal rate of 5% or less (almost no effect)); herbicidal effect on L: windgrass (windgrass [18]): 1 (Herbicidal rate of 5% or more and less than 20%); herbicidal effect on N: redroot pigweed (redroot pigweed [19]): 0 (Herbicidal rate of 5% or less (almost no effect)); herbicidal effect on R: persian speedwell (persian speedwell [21]): 5 (Herbicidal rate of 90% or more (almost completely withered)); herbicidal effect on O: lambsquarters (lambsquarters [25]): 2 (Herbicidal rate of 20% or more and less than 40%)
CCCOc1cccc(-c2sc3ccc(F)cc3c2-c2c(OC(=O)CCC)c(C)nn(C)c2=O)c1 [2-214]	3 (Herbicidal rate of 40% or more and less than 70%)	0 (Herbicidal rate of 5% or less (almost no effect))	4 (Herbicidal rate of 70% or more and less than 90%)	3 (Herbicidal rate of 40% or more and less than 70%)	5 (Herbicidal rate of 90% or more (almost completely withered))	3 (Herbicidal rate of 40% or more and less than 70%)	3 (Herbicidal rate of 40% or more and less than 70%)	0 (Herbicidal rate of 5% or less (almost no effect))	4 (Herbicidal rate of 70% or more and less than 90%)	2 (Herbicidal rate of 20% or more and less than 40%)	3 (Herbicidal rate of 40% or more and less than 70%)	4 (Herbicidal rate of 70% or more and less than 90%)	5 (Herbicidal rate of 90% or more (almost completely withered))	0 (Herbicidal rate of 5% or less (almost no effect))	0 (Herbicidal rate of 5% or less (almost no effect))	herbicidal effect on M: velvetleaf (criteria 0-5) (velvetleaf [1]): 3 (Herbicidal rate of 40% or more and less than 70%); herbicidal effect on Q: false cleavers (criteria 0-5) (false cleavers): 2 (Herbicidal rate of 20% or more and less than 40%); herbicidal effect on K: Italian ryegrass (criteria 0-5) (Italian ryegrass [7]): 1 (Herbicidal rate of 5% or more and less than 20%); herbicidal effect on J: blackgrass (criteria 0-5) (blackgrass [9]): 0 (Herbicidal rate of 5% or less (almost no effect)); herbicidal effect on G: green foxtail (criteria 0-5) (green foxtail [10]): 4 (Herbicidal rate of 70% or more and less than 90%); herbicidal effect on H: barnyard grass (criteria 0-5) (barnyard grass [12]): 1 (Herbicidal rate of 5% or more and less than 20%); herbicidal effect on I: wild oat (criteria 0-5) (wild oat [13]): 0 (Herbicidal rate of 5% or less (almost no effect)); herbicidal effect on P: chickweed (criteria 0-5) (chickweed [15]): 5 (Herbicidal rate of 90% or more (almost completely withered)); herbicidal effect on F: southern crabgrass (criteria 0-5) (southern crabgrass [17]): 4 (Herbicidal rate of 70% or more and less than 90%); herbicidal effect on L: windgrass (criteria 0-5) (windgrass [18]): 0 (Herbicidal rate of 5% or less (almost no effect)); herbicidal effect on N: redroot pigweed (criteria 0-5) (redroot pigweed [19]): 4 (Herbicidal rate of 70% or more and less than 90%); herbicidal effect on R: persian speedwell (criteria 0-5) (persian speedwell [21]): 5 (Herbicidal rate of 90% or more (almost completely withered)); herbicidal effect on O: lambsquarters (criteria 0-5) (lambsquarters [25]): 2 (Herbicidal rate of 20% or more and less than 40%)
